According to ChEMBL document CHEMBL1128271, “Computer-aided molecular modeling, synthesis, and biological evaluation of 8-(benzyloxy)-2-phenylpyrazolo[4,3-c]quinoline as a novel benzodiazepine receptor agonist ligand” (J Med Chem, 1995):

molecular target: GABA-A receptor; anion channel; test: Inhibition of [3H]-Ro- 15-1788 binding to GABA-A benzodiazepine receptor in rat brain membrane; type: cell membranes

| Compound | IC50 [µM] |
| --- | --- |
| O=c1c2cnc3ccc(OCc4ccccc4)cc3c2[nH]n1-c1ccccc1 | 0.0037 |
| O=c1c2cnc3cccc(OCc4ccccc4)c3c2[nH]n1-c1ccccc1 | > 1000 |
| COc1cccc2ncc3c(=O)n(-c4ccccc4)[nH]c3c12 | 0.00068 |
| O=c1c2cnc3cc(OCc4ccccc4)ccc3c2[nH]n1-c1ccccc1 | > 1 |
| O=c1c2cnc3c(OCc4ccccc4)cccc3c2[nH]n1-c1ccccc1 | > 1 |
| O=c1c2cnc3ccc(OCc4ccccc4)cc3c2[nH]n1-c1ccc(Cl)cc1 | 0.0523 |
| O=c1c2cnc3cccc(O)c3c2[nH]n1-c1ccccc1 | 0.00074 |
